± gives the expanded uncertainty stated by the source.
Key:
[1] = 101.3 kPa, Liquid, Pycnometric method
[2] = xn = mol fraction of the nth substance listed; settings: 101.3 kPa, Liquid, Pycnometric method, x1 = 1

Row | Structure (SMILES) | mass density ([1]; 291.15 K) [kg/m3] | mass density ([1]; 293.15 K) [kg/m3] | mass density ([1]; 298.15 K) [kg/m3] | mass density ([1]; 303.15 K) [kg/m3] | mass density ([1]; 308.15 K) [kg/m3] | mass density ([2]; 291.15 K) [kg/m3] | mass density ([2]; 293.15 K) [kg/m3] | mass density ([2]; 298.15 K) [kg/m3] | mass density ([2]; 303.15 K) [kg/m3] | mass density ([2]; 308.15 K) [kg/m3]
1 | CCCNCCC [dipropylamine] | 738.47 ± 2 | 737.2 ± 2 | 732.56 ± 2 | 728.2 ± 2 | 723.64 ± 2 | – | – | – | – | –
2 | COCCO [2-methoxyethan-1-ol] + CCCNCCC | – | – | – | – | – | 966.52 ± 2.6 | 964.88 ± 2.6 | 960.29 ± 2.6 | 955.76 ± 2.6 | 951.1 ± 2.6
3 | COCCO [2-methoxyethan-1-ol] | 966.52 ± 2.6 | 964.88 ± 2.6 | 960.29 ± 2.6 | 955.76 ± 2.6 | 951.1 ± 2.6 | – | – | – | – | –

Source: the NIST ThermoML archive (doi:10.1021/je040006u)
